In PMC8670039, “Flavonoids kaempferol and quercetin are nuclear receptor 4A1 (NR4A1, Nur77) ligands and inhibit rhabdomyosarcoma cell and tumor growth” (Journal of Experimental & Clinical Cancer Research : CR, 2021) one finds Kd data, which are given here for one molecule.

By Kd is commonly meant the free concentration of one partner at which half of the binding sites on the other are occupied at equilibrium, for simple one-to-one binding. A low value points to tighter binding.

The assay concerns the target nuclear receptor 4A1 (NR4A1, Nur77) (Homo sapiens, UniProt P22736). Briefly: Trp fluorescence quenching direct binding; also bis-ANS competitive displacement (Ki […]).

Sequence of nuclear receptor 4A1 (NR4A1, Nur77) (P22736 351-598 limits assumed): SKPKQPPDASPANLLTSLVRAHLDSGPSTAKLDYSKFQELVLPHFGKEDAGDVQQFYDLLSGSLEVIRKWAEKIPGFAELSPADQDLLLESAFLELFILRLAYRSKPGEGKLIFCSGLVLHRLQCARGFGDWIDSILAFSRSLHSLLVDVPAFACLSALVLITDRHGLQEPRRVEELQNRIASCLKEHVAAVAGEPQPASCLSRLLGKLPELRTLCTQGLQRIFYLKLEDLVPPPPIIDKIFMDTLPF

The molecule `O=c1c(O)c(-c2ccc(O)c(O)c2)oc2cc(O)cc(O)c12` [Q, quercetin] yielded a Kd of 930 nM.
